Measured values from patent US9205121B2, “Echinacea formulation” (Integria Healthcare (Australia) PTY LTD, priority 2004, dated 2015).

How the values were obtained:
Assay in all cases: metabolism of 3 by recombinant human P450
Assay type in all cases: in vitro ADME
[1] = target: T1, P450 1A1 (Homo sapiens, UniProt P04798); conditions: recombinant P450 1A1, preliminary screen
T1 construct: made in house; host or cells: Escherichia coli, bacterial membrane fraction, bicistronic vector
T1 sequence (P04798 1-512): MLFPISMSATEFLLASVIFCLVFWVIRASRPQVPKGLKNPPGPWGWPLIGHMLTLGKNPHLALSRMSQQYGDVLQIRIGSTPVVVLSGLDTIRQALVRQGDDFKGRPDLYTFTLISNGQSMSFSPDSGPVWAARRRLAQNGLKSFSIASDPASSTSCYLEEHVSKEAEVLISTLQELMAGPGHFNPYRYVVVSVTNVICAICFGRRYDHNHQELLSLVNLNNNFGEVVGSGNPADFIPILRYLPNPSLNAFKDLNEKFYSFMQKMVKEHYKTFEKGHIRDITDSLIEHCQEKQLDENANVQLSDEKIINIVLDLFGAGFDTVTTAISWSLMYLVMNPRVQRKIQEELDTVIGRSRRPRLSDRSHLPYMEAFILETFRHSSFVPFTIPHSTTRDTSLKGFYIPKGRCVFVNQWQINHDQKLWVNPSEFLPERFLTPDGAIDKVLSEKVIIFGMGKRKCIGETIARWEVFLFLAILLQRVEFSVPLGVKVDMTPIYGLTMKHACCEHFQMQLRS
Source text: (§1) Recombinant P450s were co-expressed with hNPR in Escherichia coli according to the general procedures outlined previously. Recombinant P450 preparations were obtained from bacteria transformed with bicistronic expression vectors for P450s 1A1, 1A2, 2D6, 2E1 and 3A4 [6]; 1B1 [10]; 2A6 [8]; P450 2B6 [11]; 2C9 (wild type; P450 2C9*1) and 2C19 [12]; 3A5 and 3A7 [12] and 4A11 (D. Kim and F. P. Guengerich, unpublished data). cDNAs for P450s 2C8 and 2C18 were obtained from Prof D. J. Birkett (Flinders University of South Australia) and Prof. Philippe Beaune (INSERM U490, Universite Rene Descartes, Paris V, France) respectively, and bicistronic constructs in pCW were made according to previously published methods. Membranes from cells transformed with the monocistronic expression vector for recombinant human reductase, pCW′/hNPR, were used as a negative control. Expression of P450s and preparation of bacterial membrane fractions was done according to established methods.
(§2) Incubations (0.2 mL) with recombinant enzyme preparations were performed as described above except that bacterial membrane preparations were used at 0.1 μM P450. For P450s 3A4 and 3A5, reductase concentrations were supplemented to two fold the P450 concentration by addition of membranes from cells expressing reductase alone. For P450s 2C9 and 2C19, reductase concentrations were supplemented to five fold the P450 concentration. Negative controls contained bacterial membranes derived from cells transformed with the empty expression vector alone (“pCW”) or cells expressing only reductase (“hNPR”). Negative controls contained membranes added at total protein (“pCW”) or reductase “hNPR”) concentrations at the upper limit of those present in incubations with recombinant P450 preparations.
(§3) A preliminary screen was performed to investigate metabolism of 3 by recombinant human P450s.

[2] = target: T2, P450 1B1 (Homo sapiens, UniProt Q16678); conditions: recombinant P450 1B1, preliminary screen
T2 construct: made in house; host or cells: Escherichia coli, bacterial membrane fraction, bicistronic vector
T2 sequence (Q16678 1-543): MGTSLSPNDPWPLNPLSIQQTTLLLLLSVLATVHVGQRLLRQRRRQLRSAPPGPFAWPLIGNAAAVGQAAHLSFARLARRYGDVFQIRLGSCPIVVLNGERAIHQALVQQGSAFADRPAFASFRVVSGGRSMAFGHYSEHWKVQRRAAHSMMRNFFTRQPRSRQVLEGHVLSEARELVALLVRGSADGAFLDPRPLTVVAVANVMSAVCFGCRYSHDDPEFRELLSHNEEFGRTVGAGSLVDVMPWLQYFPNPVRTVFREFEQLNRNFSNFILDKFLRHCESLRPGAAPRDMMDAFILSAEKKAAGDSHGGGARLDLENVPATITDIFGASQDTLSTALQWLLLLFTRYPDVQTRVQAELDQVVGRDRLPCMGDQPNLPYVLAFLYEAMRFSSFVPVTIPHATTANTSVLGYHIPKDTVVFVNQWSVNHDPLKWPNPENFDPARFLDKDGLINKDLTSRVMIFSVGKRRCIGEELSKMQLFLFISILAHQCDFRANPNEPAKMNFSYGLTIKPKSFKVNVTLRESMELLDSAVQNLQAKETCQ
Source text: as §1, §2, §3

[3] = target: T3, P450 2C19 (Homo sapiens, UniProt P33261); conditions: recombinant P450 2C19, preliminary screen
T3 construct: made in house; host or cells: Escherichia coli, bacterial membrane fraction, bicistronic vector; reductase topped up to five fold the P450 concentration
T3 sequence (P33261 whole entry): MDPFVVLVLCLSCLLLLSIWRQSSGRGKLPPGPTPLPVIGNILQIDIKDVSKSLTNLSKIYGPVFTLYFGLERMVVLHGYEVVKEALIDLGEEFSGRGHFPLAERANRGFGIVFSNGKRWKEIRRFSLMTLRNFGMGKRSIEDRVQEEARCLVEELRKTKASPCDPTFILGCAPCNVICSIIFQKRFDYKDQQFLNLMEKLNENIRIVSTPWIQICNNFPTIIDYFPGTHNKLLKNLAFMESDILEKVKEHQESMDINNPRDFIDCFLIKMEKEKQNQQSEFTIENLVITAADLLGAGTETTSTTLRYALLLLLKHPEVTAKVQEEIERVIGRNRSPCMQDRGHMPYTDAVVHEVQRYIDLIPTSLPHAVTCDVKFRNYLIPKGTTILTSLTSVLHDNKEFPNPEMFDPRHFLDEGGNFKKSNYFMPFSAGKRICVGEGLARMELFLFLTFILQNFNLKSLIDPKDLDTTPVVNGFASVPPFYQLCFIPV
Source text: as §1, §2, §3

[4] = target: T4, P450 2C8 (Homo sapiens, UniProt P10632); conditions: recombinant P450 2C8, preliminary screen
T4 construct: made in house; host or cells: Escherichia coli, bacterial membrane fraction, bicistronic construct in pCW
T4 sequence (P10632 1-490): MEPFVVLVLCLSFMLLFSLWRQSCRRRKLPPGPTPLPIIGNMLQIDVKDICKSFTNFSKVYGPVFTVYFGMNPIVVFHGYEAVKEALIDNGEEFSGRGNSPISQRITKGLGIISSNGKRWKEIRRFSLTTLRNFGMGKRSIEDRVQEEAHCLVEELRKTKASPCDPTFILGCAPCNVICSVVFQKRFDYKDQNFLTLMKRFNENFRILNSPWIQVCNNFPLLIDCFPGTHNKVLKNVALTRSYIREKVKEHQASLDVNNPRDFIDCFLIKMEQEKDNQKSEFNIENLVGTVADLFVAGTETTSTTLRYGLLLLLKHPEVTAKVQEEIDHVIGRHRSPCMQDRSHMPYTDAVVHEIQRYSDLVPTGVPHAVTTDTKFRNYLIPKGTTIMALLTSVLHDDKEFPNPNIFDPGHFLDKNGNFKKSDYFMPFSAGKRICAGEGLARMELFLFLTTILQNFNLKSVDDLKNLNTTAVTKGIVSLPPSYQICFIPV
Source text: as §1, §2, §3

[5] = target: T5, P450 2C9 (Homo sapiens, UniProt P11712); conditions: recombinant P450 2C9, preliminary screen
T5 construct: made in house; host or cells: Escherichia coli, bacterial membrane fraction, bicistronic vector; reductase topped up to five fold the P450 concentration
T5 sequence (P11712 whole entry): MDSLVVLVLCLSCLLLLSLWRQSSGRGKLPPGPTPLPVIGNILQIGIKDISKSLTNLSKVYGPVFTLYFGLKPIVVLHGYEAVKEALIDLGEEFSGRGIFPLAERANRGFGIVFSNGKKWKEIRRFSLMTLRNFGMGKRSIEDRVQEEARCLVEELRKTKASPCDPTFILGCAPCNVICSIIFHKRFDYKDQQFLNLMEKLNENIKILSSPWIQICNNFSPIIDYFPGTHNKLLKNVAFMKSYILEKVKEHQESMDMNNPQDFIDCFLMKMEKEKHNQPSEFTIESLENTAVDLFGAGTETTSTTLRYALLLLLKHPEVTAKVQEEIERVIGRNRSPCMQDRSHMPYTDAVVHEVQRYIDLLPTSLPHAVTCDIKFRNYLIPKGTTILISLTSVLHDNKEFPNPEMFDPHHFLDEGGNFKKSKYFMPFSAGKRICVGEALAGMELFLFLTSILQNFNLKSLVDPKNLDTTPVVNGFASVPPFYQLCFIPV
Source text: as §1, §2, §3

[6] = target: T6, P450 2D6 (Homo sapiens, UniProt P10635); conditions: recombinant P450 2D6, preliminary screen
T6 construct: made in house; host or cells: Escherichia coli, bacterial membrane fraction, bicistronic vector
T6 sequence (P10635 whole entry): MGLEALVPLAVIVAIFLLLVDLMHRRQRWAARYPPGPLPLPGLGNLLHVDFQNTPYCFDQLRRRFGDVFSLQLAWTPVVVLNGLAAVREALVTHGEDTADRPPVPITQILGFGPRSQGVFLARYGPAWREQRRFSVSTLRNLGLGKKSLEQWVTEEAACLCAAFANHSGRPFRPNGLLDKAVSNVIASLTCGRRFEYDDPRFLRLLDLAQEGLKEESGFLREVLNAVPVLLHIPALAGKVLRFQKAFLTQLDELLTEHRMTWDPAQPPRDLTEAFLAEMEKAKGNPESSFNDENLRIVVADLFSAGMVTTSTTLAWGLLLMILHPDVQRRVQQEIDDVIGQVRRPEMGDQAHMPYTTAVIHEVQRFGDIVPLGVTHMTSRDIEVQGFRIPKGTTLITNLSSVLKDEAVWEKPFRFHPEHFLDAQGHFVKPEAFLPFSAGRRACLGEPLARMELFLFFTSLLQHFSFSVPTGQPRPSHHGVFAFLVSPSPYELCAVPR
Source text: as §1, §2, §3

[7] = tested on: P450 3A4; conditions: recombinant P450 3A4, preliminary screen
Source text: as §1, §2, §3

[8] = target: T7, P450 3A5 (Homo sapiens, UniProt P20815); conditions: recombinant P450 3A5, preliminary screen
T7 construct: made in house; host or cells: Escherichia coli, bacterial membrane fraction, bicistronic vector; reductase topped up to two fold the P450 concentration
T7 sequence (P20815 whole entry): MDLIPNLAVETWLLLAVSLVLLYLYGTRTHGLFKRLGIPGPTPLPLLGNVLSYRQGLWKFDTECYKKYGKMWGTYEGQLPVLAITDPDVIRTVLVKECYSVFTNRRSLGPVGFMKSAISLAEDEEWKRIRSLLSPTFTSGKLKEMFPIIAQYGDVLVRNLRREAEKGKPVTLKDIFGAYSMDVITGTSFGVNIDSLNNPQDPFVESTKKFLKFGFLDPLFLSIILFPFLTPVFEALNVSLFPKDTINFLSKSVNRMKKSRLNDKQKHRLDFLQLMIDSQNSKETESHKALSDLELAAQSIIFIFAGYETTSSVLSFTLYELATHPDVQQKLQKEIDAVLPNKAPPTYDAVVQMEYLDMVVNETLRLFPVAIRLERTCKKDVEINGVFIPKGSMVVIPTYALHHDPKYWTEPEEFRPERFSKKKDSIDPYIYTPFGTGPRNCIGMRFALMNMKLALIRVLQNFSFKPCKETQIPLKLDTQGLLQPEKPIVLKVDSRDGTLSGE
Source text: as §1, §2, §3

consumption of 3 [1]: observed | consumption of 3 [2]: observed | consumption of 3 [3]: observed | consumption of 3 [4]: observed | consumption of 3 [5]: observed | consumption of 3 [6]: observed | consumption of 3 [7]: observed | consumption of 3 [8]: observed
Compound: C/C=C\C=C/CC/C=C/C=C/C(=O)NCC(C)C [alkylamide 3, (2E,4E,8Z,10Z)—N-isobutyldodeca-2,4,8,10-tetraenamide]
